From the supplement of paper PMC11451515

Columns and labels:
Conditions in all cases: 48 h
SEM cells [1] = test: cell viability relative to DMSO control; higher = less cytotoxic
Procedure, shortened: (§1)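 Viability is expressed as a percentage of DMSO wells within each plate, and cell-free wells serve as background. Seeding densities in the 1536-well plates (5 μl) were 500 cells/well for NOMO1 or SEM leukemia cells and 1000 cells/well for P12-Ichikawa. Each line was adapted for at least four passages in each medium. Library compounds in DMSO were pin-dosed at 47 μM to 0.79 nM (11 points, threefold), and CellTiter-Glo One luminescence was read after 48 h at 37°C.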

NOMO1 [2] = test: as above
Procedure, shortened: as §1

P12-Ichikawa [3] = test: as above
Procedure, shortened: as §1

SEM cells [4] = test: AUC of viability dose-response curve (% viability x log10 dose units); higher = less sensitive
Procedure, shortened: (§2)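 Leukemia cells adapted to each medium (500 or 1000 cells/well, 1536-well plates) were exposed to library compounds in DMSO for 48 h at 37°C at 11 threefold doses, 47 μM to 0.79 nM. Luminescence by CellTiter-Glo One was normalised per plate to DMSO and cell-free wells, then fitted with a four-parameter log-logistic curve on log10 dose. Curves above full viability were scaled and quality-control failures removed before area under the curve was integrated by trapezoidal rule.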

NOMO1 [5] = test: as above
Procedure, shortened: as §2

P12-Ichikawa [6] = test: as above
Procedure, shortened: as §2

COc1cc2ncnc(Nc3ccc(F)c(Cl)c3)c2cc1NC(=O)/C=C/CN1CCCCC1
cell viability [%]
Conditions | NOMO1 [2] | P12-Ichikawa [3] | SEM cells [1]
HPLM + 10% dialyzed FBS, 0.000781 µM | 92.2 | 109 | 94.2
HPLM + 10% dialyzed FBS, 0.00234 µM | 105 | 108 | 112
HPLM + 10% dialyzed FBS, 0.00702 µM | 114 | 103 | 110
HPLM + 10% dialyzed FBS, 0.0211 µM | 102 | 106 | 102
HPLM + 10% dialyzed FBS, 0.0632 µM | 108 | 107 | 105
HPLM + 10% dialyzed FBS, 0.19 µM | 118 | 97.6 | 99.1
HPLM + 10% dialyzed FBS, 0.569 µM | 81.9 | 106 | 94.6
HPLM + 10% dialyzed FBS, 1.71 µM | 81.8 | 90.1 | 85.5
HPLM + 10% dialyzed FBS, 5.12 µM | 72.1 | 85.4 | 76.7
HPLM + 10% dialyzed FBS, 15.4 µM | 65.6 | 79.1 | 71.4
HPLM + 10% dialyzed FBS, 46.1 µM | 41.5 | 67.9 | 42.4
RPMI 5 mM glucose + 10% FBS, 0.000781 µM | 86.4 | 106 | 119
RPMI 5 mM glucose + 10% FBS, 0.00234 µM | 93.7 | 106 | 129
RPMI 5 mM glucose + 10% FBS, 0.00702 µM | 91.1 | 103 | 120
RPMI 5 mM glucose + 10% FBS, 0.0211 µM | 86.3 | 101 | 119
RPMI 5 mM glucose + 10% FBS, 0.0632 µM | 98.4 | 102 | 122
RPMI 5 mM glucose + 10% FBS, 0.19 µM | 84.9 | 106 | 117
RPMI 5 mM glucose + 10% FBS, 0.569 µM | 89.6 | 102 | 124
RPMI 5 mM glucose + 10% FBS, 1.71 µM | 88.4 | 92.6 | 91.3
RPMI 5 mM glucose + 10% FBS, 5.12 µM | 89.1 | 85.7 | 88.6
RPMI 5 mM glucose + 10% FBS, 15.4 µM | 91.7 | 82.9 | 80.2
RPMI 5 mM glucose + 10% FBS, 46.1 µM | 75.5 | 75.2 | 42.3
RPMI 5 mM glucose + 10% dialyzed FBS, 0.000781 µM | 95.7 | 101 | 97.9
RPMI 5 mM glucose + 10% dialyzed FBS, 0.00234 µM | 97.7 | 109 | 85.6
RPMI 5 mM glucose + 10% dialyzed FBS, 0.00702 µM | 93.6 | 94.5 | 96.4
RPMI 5 mM glucose + 10% dialyzed FBS, 0.0211 µM | 85.4 | 109 | 116
RPMI 5 mM glucose + 10% dialyzed FBS, 0.0632 µM | 91.3 | 105 | 93.3
RPMI 5 mM glucose + 10% dialyzed FBS, 0.19 µM | 96.6 | 102 | 87
RPMI 5 mM glucose + 10% dialyzed FBS, 0.569 µM | 85.1 | 104 | 104
RPMI 5 mM glucose + 10% dialyzed FBS, 1.71 µM | 95.2 | 88.4 | 76.6
RPMI 5 mM glucose + 10% dialyzed FBS, 5.12 µM | 78.3 | 80.9 | 77.6
RPMI 5 mM glucose + 10% dialyzed FBS, 15.4 µM | 65.6 | 76 | 66.7
RPMI 5 mM glucose + 10% dialyzed FBS, 46.1 µM | 72.9 | 67.8 | 41.3

AUC of viability dose-response curve
Conditions | NOMO1 [5] | P12-Ichikawa [6] | SEM cells [4]
HPLM + 10% dialyzed FBS | 408 | 433 | 417
RPMI 5 mM glucose + 10% FBS | 426 | 444 | 415
RPMI 5 mM glucose + 10% dialyzed FBS | 418 | 436 | 416

NC/1=N/C2=C([NH]C=N2)C(=S)N1
cell viability [%]
Conditions | NOMO1 [2] | P12-Ichikawa [3] | SEM cells [1]
HPLM + 10% dialyzed FBS, 0.000781 µM | 107 | 113 | 110
HPLM + 10% dialyzed FBS, 0.00234 µM | 121 | 122 | 57
HPLM + 10% dialyzed FBS, 0.00702 µM | 121 | 116 | 106
HPLM + 10% dialyzed FBS, 0.0211 µM | 133 | 123 | 115
HPLM + 10% dialyzed FBS, 0.0632 µM | 131 | 123 | 117
HPLM + 10% dialyzed FBS, 0.19 µM | 115 | 121 | 114
HPLM + 10% dialyzed FBS, 0.569 µM | 122 | 120 | 108
HPLM + 10% dialyzed FBS, 1.71 µM | 137 | 119 | 117
HPLM + 10% dialyzed FBS, 5.12 µM | 126 | 98.2 | 113
HPLM + 10% dialyzed FBS, 15.4 µM | 145 | 94.2 | 110
HPLM + 10% dialyzed FBS, 46.1 µM | 35.1 | 28.9 | 24.2
RPMI 5 mM glucose + 10% FBS, 0.000781 µM | 111 | 119 | 114
RPMI 5 mM glucose + 10% FBS, 0.00234 µM | 119 | 120 | 81.5
RPMI 5 mM glucose + 10% FBS, 0.00702 µM | 123 | 124 | 117
RPMI 5 mM glucose + 10% FBS, 0.0211 µM | 119 | 116 | 105
RPMI 5 mM glucose + 10% FBS, 0.0632 µM | 113 | 131 | 119
RPMI 5 mM glucose + 10% FBS, 0.19 µM | 115 | 130 | 114
RPMI 5 mM glucose + 10% FBS, 0.569 µM | 117 | 116 | 102
RPMI 5 mM glucose + 10% FBS, 1.71 µM | 120 | 119 | 103
RPMI 5 mM glucose + 10% FBS, 5.12 µM | 109 | 96 | 102
RPMI 5 mM glucose + 10% FBS, 15.4 µM | 101 | 88.1 | 108
RPMI 5 mM glucose + 10% FBS, 46.1 µM | 27.6 | 21.2 | 16.1
RPMI 5 mM glucose + 10% dialyzed FBS, 0.000781 µM | – | 105 | 95.1
RPMI 5 mM glucose + 10% dialyzed FBS, 0.00234 µM | – | 117 | 81.6
RPMI 5 mM glucose + 10% dialyzed FBS, 0.00702 µM | – | 124 | 103
RPMI 5 mM glucose + 10% dialyzed FBS, 0.0211 µM | – | 122 | 118
RPMI 5 mM glucose + 10% dialyzed FBS, 0.0632 µM | – | 125 | 113
RPMI 5 mM glucose + 10% dialyzed FBS, 0.19 µM | – | 112 | 103
RPMI 5 mM glucose + 10% dialyzed FBS, 0.569 µM | – | 118 | 81
RPMI 5 mM glucose + 10% dialyzed FBS, 1.71 µM | – | 110 | 37.7
RPMI 5 mM glucose + 10% dialyzed FBS, 5.12 µM | – | 79 | 29.6
RPMI 5 mM glucose + 10% dialyzed FBS, 15.4 µM | – | 59.7 | 33.5
RPMI 5 mM glucose + 10% dialyzed FBS, 46.1 µM | – | 11.1 | 9.21

AUC of viability dose-response curve
Conditions | NOMO1 [5] | P12-Ichikawa [6] | SEM cells [4]
HPLM + 10% dialyzed FBS | 457 | 441 | 458
RPMI 5 mM glucose + 10% FBS | 451 | 433 | 457
RPMI 5 mM glucose + 10% dialyzed FBS | 402 | 409 | 345

C[C@@]12C[C@@]3(O)O[C@@H](O1)[C@]1(COC(=O)c4ccccc4)[C@H]3C[C@@]12O[C@@H]1O[C@H](CO)[C@@H](O)[C@H](O)[C@H]1O
cell viability [%]
Conditions | NOMO1 [2] | P12-Ichikawa [3] | SEM cells [1]
HPLM + 10% dialyzed FBS, 0.000781 µM | 94.6 | 91.3 | 96
HPLM + 10% dialyzed FBS, 0.00234 µM | 112 | 96 | 91.2
HPLM + 10% dialyzed FBS, 0.00702 µM | 99.3 | 103 | 109
HPLM + 10% dialyzed FBS, 0.0211 µM | 126 | 100 | 117
HPLM + 10% dialyzed FBS, 0.0632 µM | 124 | 110 | 98.5
HPLM + 10% dialyzed FBS, 0.19 µM | 130 | 99.5 | 103
HPLM + 10% dialyzed FBS, 0.569 µM | 137 | 103 | 108
HPLM + 10% dialyzed FBS, 1.71 µM | 113 | 108 | 96.7
HPLM + 10% dialyzed FBS, 5.12 µM | 100 | 109 | 107
HPLM + 10% dialyzed FBS, 15.4 µM | 71.1 | 97.5 | 113
HPLM + 10% dialyzed FBS, 46.1 µM | 45.5 | 76.7 | 107
RPMI 5 mM glucose + 10% FBS, 0.000781 µM | 100 | 94.9 | 105
RPMI 5 mM glucose + 10% FBS, 0.00234 µM | 95.2 | 99.4 | 87
RPMI 5 mM glucose + 10% FBS, 0.00702 µM | 109 | 111 | 101
RPMI 5 mM glucose + 10% FBS, 0.0211 µM | 103 | 111 | 100
RPMI 5 mM glucose + 10% FBS, 0.0632 µM | 114 | 118 | 124
RPMI 5 mM glucose + 10% FBS, 0.19 µM | 105 | 105 | 92.6
RPMI 5 mM glucose + 10% FBS, 0.569 µM | 105 | 108 | 116
RPMI 5 mM glucose + 10% FBS, 1.71 µM | 103 | 116 | 138
RPMI 5 mM glucose + 10% FBS, 5.12 µM | 98.3 | 118 | 111
RPMI 5 mM glucose + 10% FBS, 15.4 µM | 109 | 113 | 105
RPMI 5 mM glucose + 10% FBS, 46.1 µM | 112 | 112 | 98.9
RPMI 5 mM glucose + 10% dialyzed FBS, 0.000781 µM | 103 | 89.8 | 99
RPMI 5 mM glucose + 10% dialyzed FBS, 0.00234 µM | 91.2 | 95.4 | 89.8
RPMI 5 mM glucose + 10% dialyzed FBS, 0.00702 µM | 94.9 | 103 | 118
RPMI 5 mM glucose + 10% dialyzed FBS, 0.0211 µM | 103 | 110 | 122
RPMI 5 mM glucose + 10% dialyzed FBS, 0.0632 µM | 101 | 105 | 121
RPMI 5 mM glucose + 10% dialyzed FBS, 0.19 µM | 114 | 97.4 | 101
RPMI 5 mM glucose + 10% dialyzed FBS, 0.569 µM | 93.7 | 108 | 119
RPMI 5 mM glucose + 10% dialyzed FBS, 1.71 µM | 107 | 104 | 115
RPMI 5 mM glucose + 10% dialyzed FBS, 5.12 µM | 114 | 103 | 122
RPMI 5 mM glucose + 10% dialyzed FBS, 15.4 µM | 110 | 110 | 107
RPMI 5 mM glucose + 10% dialyzed FBS, 46.1 µM | 91 | 101 | 122

AUC of viability dose-response curve
Conditions | NOMO1 [5] | P12-Ichikawa [6] | SEM cells [4]
HPLM + 10% dialyzed FBS | 436 | 469 | 456
RPMI 5 mM glucose + 10% FBS | 463 | 467 | 454
RPMI 5 mM glucose + 10% dialyzed FBS | 463 | 469 | 463
